Legend:
[1] = tested on: lipid oxidising abzymes (atheroma extracted IgG); test: Testing of anti-abzyme activity (lipid oxidation, MDA/thiobarbituric acid assay); assay type: biochemical, human
Procedure: Antibodies were extracted from advanced atherosclerotic lesions of human aorta retrieved from two male patients […], during bypass surgery of an abdominal aortal stenosis at the Centre of Cardio-Vascular Surgery of the Medical University of Rostov-na-Donu, Russian Federation. After recovery these samples were immediately put in 30% w/v solution of NaCl and stored at 0-4° C. for 1 month prior to examination. […]
The antibodies were extracted and analysed separately from the lesions of the two pieces of the abdominal aorta obtained from the […] different patients. […]
Samples of the human serum were incubated with different concentrations of lycopene, lycopene/lactoprotein conjugate or alone (control samples) with the presence of atheroma extracted IgG for 16 hours at 37° C. at pH 5.6. The level of lipid peroxidation was assessed as a level of MDA concentration which was measured by spectrophotometric method [Draper, H. H. et al Free Radic. […] Briefly, the level of abzymes in a sample was determined as follows: Samples of sera were diluted 1:1 by 0.05M acetate buffer pH 4.0 to make the final pH of these samples between 5.6-5.8. […] The supernatants were collected and their absorption measured at λ 525 nm to determine the concentration of malondialdehydes (MDA), which are products of lipid peroxidation.

lipid oxidising abzymes = test: ELISA based abzyme assay; assay type: biochemical, human; conditions: in vitro
Procedure: ELISA assays were performed using Medac materials and reagents, which were used in accordance with the manufacturers instructions.
Briefly, serum samples from patients were treated as described above. 50 μl of sample diluent was pipetted into microtitre well A1 as blank, and 50 μl of the negative control, Positive Control and the diluted patients' samples were pipetted into other microtitre wells. The microplate wells were incubated for 60 min (±5 min) at 37 °C (±1° C.) in a humid chamber and then washed three times with 200 μl wash buffer per well. 50 μl of Conjugate was then added to each well and the microplate wells incubated again for 60 min (±5 min) at 37 °C (±1° C.) in a humid chamber and then washed. 50 μl of TMB-Substrate, was added to each well and the microplate wells incubated for 30 min (±2 min) at 37 °C (±1° C.) in a humid chamber. The reaction was stopped by adding 100 μl of Stop Solution, to each well.
Photometric reading was performed at 450 nm (ref. 620-650 nm) within 15 min after adding the Stop Solution.
To calculate the results, the OD value of the blank (well A1) was subtracted from all other OD values. Preferably, the OD value of the blank was <0.150, the mean OD value of the Negative Control was <0.100 and the OD value of the Positive Control was >0.800. Cut-off mean OD value of the Negative Control+0.380. Grey zone Cut-off±10%

CC(C)=CCC/C(C)=C/C=C/C(C)=C/C=C/C(C)=C/C=C/C=C(C)/C=C/C=C(C)/C=C/C=C(\C)CCC=C(C)C [Lycopene] was tested, and the “Maximum inhibition in vitro” value ([1]; abzyme inhibition) was 0%, the abzyme inhibition activity ([1]; lipid oxidation assay, in vitro) was “ineffective” and the abzyme inhibition activity (lipid oxidising abzymes) was “ineffective”.
